The text below walks through data of article PMC12525602, “Identification of Selective α-Glucosidase Inhibitors via Virtual Screening with Machine Learning” (Molecules, 2025).

The target in test [1] is T1, α-glucosidase (Saccharomyces cerevisiae, UniProt P53341).
T1 construct: purchased Sigma-Aldrich Co. (St. Louis, MI, USA)
The test can be described thus: Synchronous fluorescence spectroscopy (RSQF). The format is binding. As to the method:
Changes in the microenvironment of tyrosine (Tyr) and tryptophan (Trp) residue fluorophores were detected simultaneously. The excitation and emission wavelength intervals were set to 15 nm and 60 nm, respectively, and the synchronized fluorescence spectra from 260 to 320 nm were determined. The synchronized fluorescence burst ratio (RSFQ) was calculated as follows:(7) RSQF=1−F/F0

For another test, the system named is C57BL/6J mice. The test can be described thus: In vivo starch digestion inhibition experiment (postprandial blood glucose). As to conditions: normal mice, 10 mg/kg by gavage, 2 g/kg starch, 0-120 min; p < 0.001 versus controls. An excerpt:
After the in vitro validation, in order to further characterize the effect of the inhibitor on postprandial glycemic control, we performed in vivo characterization by gavage in mice. Eight-week-old male C57BL/6J mice (purchased from Beijing Huafukang Laboratory Animals, Beijing, China) were used for the experiments. The animal experimental procedures were approved by the Ethics Committee on Laboratory Animal Management and Welfare of Beijing Huafuqian Times Technology Co. Ltd. (Ethical Review Approval No. HYSD2023-04), and local and national ethical guidelines were strictly observed. All mice were placed in a controlled environment with a temperature of 25 °C, relative humidity of 60%, and a light/dark cycle of 12/12 h. Following overnight fasting, gastric intubation was performed on mice in the control group, acarbose group, […] group, […] group, […] group, and […] group. The control group received saline infusion to eliminate confounding factors during administration. […] The remaining groups each received a corresponding concentration (10 mg/kg) of the test compound dissolved in saline solution to evaluate inhibitor efficacy. 2 g/kg of starch was given after 5 min, and the […] at 0 min, 10 min, 20 min, 30 min, 40 min, 60 min, 90 min and 120 min.

Test [2] addresses T1, α-glucosidase. The test can be described thus: biochemical. The format is biochemical. The method, then:
To further investigate the inhibition kinetics of the candidate compounds, α-glucosidase activity was determined at different substrate concentrations. The Lineweaver-Burk expression method in Equation (1) was used to test the reaction of a series of compounds with the substrate pNαGP, and the values of maximum velocity (Vmax) and Michaelis-Menten constant (Km) were calculated.(1) 1/v=Km/Vmax1/[S]+1/Vmax where Vmax and Km are the maximum velocity of the enzyme and the Michaelis-Menten constant in the absence of inhibitor, respectively. [S] is the concentration of substrate and inhibitor.(2) Slope=Km/Vmax+Km/Vmax·KiI where v is the initial reaction rate, Vmax is the maximum initial reaction rate, [I] is the concentration of […], and Km is the Michaelis-Menten constant.

The target in test [3] is T1, α-glucosidase. In words: Fluorescence quenching experiment (Stern-Volmer). The format is binding. As to conditions: for Kq (bimolecular quenching constant): given as number×10 with exponent 12. The method, then:
The fluorescence quenching experiment was modified somewhat based on previous studies. Fluorescence was determined by titrating α-glucosidase (1.0 mL, 2 U/mL) with different concentrations of inhibited solutions (1.0 mL, 0–200 mM) and left to equilibrate for 5 min. […] Fluorescence burst analysis was performed based on the Stern-Volmer (3) equation.(3) F0/F=1+Kqτ0Q=1+KsvQ
F and F0 are the fluorescence intensities with and without inhibitor, respectively, Ksv is the Stern-Volmer bursting constant, Kq is the bimolecular bursting constant, and [Q] is the concentration of inhibitor.
When the bursting mode conforms to static bursting, the binding constant Ka and the number of binding sites for each enzyme can be calculated from Equation (4).(4) logF0−F/F=logKa+nlogQ
Ka is the binding constant and n is the number of binding sites.
The thermodynamic parameters ∆H, ∆S, and ∆G denote the change in heat, entropy, and free energy, respectively.

T1 sequence (P53341 whole entry): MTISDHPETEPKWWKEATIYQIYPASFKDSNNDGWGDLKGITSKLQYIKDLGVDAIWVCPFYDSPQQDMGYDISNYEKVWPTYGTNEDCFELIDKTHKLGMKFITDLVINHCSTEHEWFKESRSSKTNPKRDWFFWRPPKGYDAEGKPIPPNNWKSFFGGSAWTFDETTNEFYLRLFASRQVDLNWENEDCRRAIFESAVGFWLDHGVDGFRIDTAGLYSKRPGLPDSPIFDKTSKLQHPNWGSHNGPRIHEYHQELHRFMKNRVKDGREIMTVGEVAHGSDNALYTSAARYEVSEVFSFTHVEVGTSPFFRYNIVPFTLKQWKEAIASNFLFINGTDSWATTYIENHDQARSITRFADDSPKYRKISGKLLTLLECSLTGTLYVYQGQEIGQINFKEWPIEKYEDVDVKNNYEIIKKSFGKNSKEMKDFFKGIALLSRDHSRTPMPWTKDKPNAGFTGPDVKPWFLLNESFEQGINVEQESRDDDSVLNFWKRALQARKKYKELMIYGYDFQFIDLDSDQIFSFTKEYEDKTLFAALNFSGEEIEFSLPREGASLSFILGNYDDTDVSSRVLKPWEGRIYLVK

For `C[C@H]1O[C@H](O[C@H]2[C@H](O)[C@@H](O)[C@@H](O[C@H]3[C@H](O)[C@@H](O)C(O)O[C@@H]3CO)O[C@@H]2CO)[C@H](O)[C@@H](O)[C@@H]1N[C@H]1C=C(CO)[C@@H](O)[C@H](O)[C@H]1O` (some centres unmarked) [Acarbose, acarbose, reference compound], the “RSQF values, Trp (Δλ = 60 nm) versus Tyr (Δλ = 15 nm)” value at α-glucosidase [1] was “very low”. For the same compound, in the test on C57BL/6J mice, the “blood glucose area under the curve (AUC), total glycemic exposure” value was “significantly reduced”. Moreover, the Type of inhibition result at α-glucosidase [2] was “Mixed”. In addition, the Vmax at α-glucosidase [2] ([I] […] μM) is 5.92±0.06 ×10-1µM/min; at α-glucosidase [2] ([I] 500 μM), 6.18±0.04 ×10-1µM/min; on α-glucosidase [2] ([I] 1000 μM) it was 5.90±0.03 ×10-1µM/min; on α-glucosidase [2] ([I] 2000 μM), 2.42±0.06 ×10-1µM/min; on α-glucosidase [2] ([I] […]), 5.96±0.06 ×10-1µM/min. For the same compound, the figures for the “Ksv (quenching constant)” value on α-glucosidase [3] (T 300.15 K) and on α-glucosidase [3] (T 305.15 K) were 0.01 ±0.01 104 /M and 0.02 ±0.01 104 /M, respectively. Moreover, the figures for the “n (number of binding sites)” value on α-glucosidase [3] (T 300.15 K) and on α-glucosidase [3] (T 305.15 K) were 1.04 and 0.98, respectively. Besides, the “Kq (bimolecular quenching constant)” value is 0.01 ×10^12 (M·S)-1 at α-glucosidase [3] (T 300.15 K) and 0.02 ×10^12 (M·S)-1 at α-glucosidase [3] (T 305.15 K).
